Test results published in ChEMBL document CHEMBL1159244, “New polyoxypregnane ester derivatives from Leptadenia hastata” (J Nat Prod, 1995).
Active and inactive are the calls of the source. The rule behind the calls is not given here.

Columns and labels:
Raji [1] = experiment: Cytotoxicity against human Raji cells assessed as [methyl-3H]thymidine incorporation into DNA at 0.5 ug/ml after 24 hrs; format: functional, cell-based
Raji [2] = experiment: Cytotoxicity against human Raji cells assessed as [methyl-3H]thymidine incorporation into DNA at 1 ug/ml after 24 hrs; format: functional, cell-based

## CC(=O)O[C@@H](C)[C@]1(O)CC[C@@]2(O)[C@]1(C)[C@H](OC(=O)/C=C/c1ccccc1)C[C@@H]1[C@@]3(C)CC[C@H](O)CC3=CC[C@]12O
Raji [1]
  Activity: inactive
Raji [2]
  Activity: inactive

## C[C@H](OC(=O)c1cccnc1)[C@]1(O)CC[C@@]2(O)[C@]1(C)[C@H](OC(=O)/C=C/c1ccccc1)C[C@@H]1[C@@]3(C)CC[C@H](O)CC3=CC[C@]12O
Raji [1]
  Activity: inactive
Raji [2]
  Activity: inactive

## CC(=O)[C@]1(O)CC[C@@]2(O)[C@]1(C)[C@H](OC(=O)c1cccnc1)C[C@@H]1[C@@]3(C)CC[C@H](O)CC3=CC[C@]12O
Raji [1]
  Activity: inactive
Raji [2]
  Activity: inactive

## CC(=O)[C@]1(O)CC[C@@]2(O)[C@]1(C)[C@H](OC(=O)/C=C/c1ccccc1)C[C@@H]1[C@@]3(C)CC[C@H](O)CC3=CC[C@]12O
Raji [1]
  Activity: inactive
Raji [2]
  Activity: inactive

## C[C@H](O)[C@]1(O)CC[C@@]2(O)[C@]1(C)[C@H](OC(=O)/C=C/c1ccccc1)C[C@@H]1[C@@]3(C)CC[C@H](O)CC3=CC[C@]12O
Raji [1]
  Activity: inactive
Raji [2]
  Activity: inactive

## C[C@H](OC(=O)/C=C/c1ccccc1)[C@]1(O)CC[C@@]2(O)[C@]1(C)[C@H](OC(=O)c1ccccc1)C[C@@H]1[C@@]3(C)CC[C@H](O)CC3=CC[C@]12O
Raji [1]
  Activity: inactive
Raji [2]
  Activity: inactive

## CO[C@H]1C[C@H](O[C@H]2CC[C@@]3(C)C(=CC[C@]4(O)[C@@H]3C[C@@H](OC(=O)/C=C/c3ccccc3)[C@@]3(C)[C@]4(O)CC[C@@]3(O)[C@H](C)O)C2)O[C@H](C)[C@H]1O[C@H]1C[C@@H](OC)[C@H](O)[C@@H](C)O1
Raji [1]
  Activity: inactive
Raji [2]
  Activity: inactive

## CC(=O)O[C@@H]1C[C@@H]2[C@@]3(C)CC[C@H](O)CC3=CC[C@@]2(O)[C@@]2(O)CC[C@@](O)([C@H](C)O)[C@@]12C
Raji [1]
  Activity: inactive
Raji [2]
  Activity: inactive

## C[C@H](OC(=O)c1ccccc1)[C@]1(O)CC[C@@]2(O)[C@]1(C)[C@H](OC(=O)c1ccccc1)C[C@@H]1[C@@]3(C)CC[C@H](O)CC3=CC[C@]12O
Raji [1]
  Activity: inactive
Raji [2]
  Activity: inactive

## CC(=O)[C@]1(O)CC[C@@]2(O)[C@]1(C)[C@H](OC(=O)c1ccccc1)C[C@@H]1[C@@]3(C)CC[C@H](O)CC3=CC[C@]12O
Raji [1]
  Activity: inactive
Raji [2]
  Activity: inactive

## CC(=O)O[C@@H](C)[C@]1(O)CC[C@@]2(O)[C@]1(C)[C@H](OC(=O)c1cccnc1)C[C@@H]1[C@@]3(C)CC[C@H](O)CC3=CC[C@]12O
Raji [1]
  Activity: inactive
Raji [2]
  Activity: inactive

## CO[C@H]1C[C@H](O[C@H]2CC[C@@]3(C)C(=CC[C@]4(O)[C@@H]3C[C@@H](OC(=O)c3ccccc3)[C@@]3(C)[C@]4(O)CC[C@@]3(O)[C@H](C)OC(=O)/C=C/c3ccccc3)C2)O[C@H](C)[C@H]1O[C@H]1C[C@@H](OC)[C@H](O)[C@@H](C)O1
Raji [1]
  Activity: inactive
Raji [2]
  Activity: inactive

## CC(=O)O[C@@H]1C[C@@H]2[C@@]3(C)CC[C@H](O)CC3=CC[C@@]2(O)[C@@]2(O)CC[C@@](O)(C(C)=O)[C@@]12C
Raji [1]
  Activity: inactive
Raji [2]
  Activity: inactive

## CO[C@H]1C[C@H](O[C@H]2CC[C@@]3(C)C(=CC[C@]4(O)[C@@H]3C[C@@H](OC(=O)c3ccccc3)[C@@]3(C)[C@]4(O)CC[C@@]3(O)[C@H](C)OC(=O)/C=C/c3ccccc3)C2)O[C@H](C)[C@H]1O
Raji [1]
  Activity: inactive
Raji [2]
  Activity: inactive
